Data from the kinase profiling compilation of Christmann-Franck et al. (2016).

Tests used:
KDR (human) [1] = molecular target: KDR (human) (UniProt P35968); assay: SelectScreen, TR FRET; settings: compound 5.0 µM
MAPKAPK5 (human) = MAPKAPK5 (human) (UniProt Q8IW41); assay: SelectScreen, TR FRET; settings: compound 5.0 µM
GSK3B (human) = GSK3B (human) (UniProt P49841); assay: SelectScreen, TR FRET; settings: compound 5.0 µM
GRK7 (human) = GRK7 (human) (UniProt Q8WTQ7); assay: SelectScreen, TR FRET; settings: compound 5.0 µM
MAPK12 (human) = MAPK12 (human) (UniProt P53778); assay: SelectScreen, TR FRET; settings: compound 5.0 µM
MAPK14 (human) = MAPK14 (human) (UniProt Q16539); assay: SelectScreen, TR FRET; settings: compound 5.0 µM
ROCK1 (human) = ROCK1 (human) (UniProt Q13464); assay: SelectScreen, TR FRET; settings: compound 5.0 µM
[2] = tested on: EGFR (human), P00533 [L858R]; assay: SelectScreen, TR FRET; settings: compound 5.0 µM
FLT4 (human) = FLT4 (human) (UniProt P35916); assay: SelectScreen, TR FRET; settings: compound 5.0 µM
GRK5 (human) = GRK5 (human) (UniProt P34947); assay: SelectScreen, TR FRET; settings: compound 5.0 µM
TSSK1B (human) = TSSK1B (human) (UniProt Q9BXA7); assay: SelectScreen, TR FRET; settings: compound 5.0 µM
MYLK2 (human) = MYLK2 (human) (UniProt Q9H1R3); assay: SelectScreen, TR FRET; settings: compound 5.0 µM
FES (human) = FES (human) (UniProt P07332); assay: SelectScreen, TR FRET; settings: compound 5.0 µM
SRPK2 (human) = SRPK2 (human) (UniProt P78362); assay: SelectScreen, TR FRET; settings: compound 5.0 µM
PRKCZ (human) = PRKCZ (human) (UniProt Q05513); assay: SelectScreen, TR FRET; settings: compound 5.0 µM
MAPKAPK3 (human) = MAPKAPK3 (human) (UniProt Q16644); assay: SelectScreen, TR FRET; settings: compound 5.0 µM
FGFR3 (human) = FGFR3 (human) (UniProt P22607); assay: SelectScreen, TR FRET; settings: compound 5.0 µM
PRKCG (human) = PRKCG (human) (UniProt P05129); assay: SelectScreen, TR FRET; settings: compound 5.0 µM
PTK6 (human) = PTK6 (human) (UniProt Q13882); assay: SelectScreen, TR FRET; settings: compound 5.0 µM
GRK4 (human) = GRK4 (human) (UniProt P32298); assay: SelectScreen, TR FRET; settings: compound 5.0 µM
PRKD3 (human) = PRKD3 (human) (UniProt O94806); assay: SelectScreen, TR FRET; settings: compound 5.0 µM
STK4 (human) = STK4 (human) (UniProt Q13043); assay: SelectScreen, TR FRET; settings: compound 5.0 µM
TEK (human) [3] = molecular target: TEK (human) (UniProt Q02763); assay: SelectScreen, TR FRET; settings: compound 5.0 µM
CLK2 (human) = CLK2 (human) (UniProt P49760); assay: SelectScreen, TR FRET; settings: compound 5.0 µM
ROS1 (human) = ROS1 (human) (UniProt P08922); assay: SelectScreen, TR FRET; settings: compound 5.0 µM
DYRK4 (human) = DYRK4 (human) (UniProt Q9NR20); assay: SelectScreen, TR FRET; settings: compound 5.0 µM
MAP2K2 (human) = MAP2K2 (human) (UniProt P36507); assay: SelectScreen, TR FRET; settings: compound 5.0 µM
PRKCD (human) = PRKCD (human) (UniProt Q05655); assay: SelectScreen, TR FRET; settings: compound 5.0 µM
GSK3A (human) = GSK3A (human) (UniProt P49840); assay: SelectScreen, TR FRET; settings: compound 5.0 µM
MUSK (human) = MUSK (human) (UniProt O15146); assay: SelectScreen, TR FRET; settings: compound 5.0 µM
EPHA2 (human) = EPHA2 (human) (UniProt P29317); assay: SelectScreen, TR FRET; settings: compound 5.0 µM
PIM2 (human) = PIM2 (human) (UniProt Q9P1W9); assay: SelectScreen, TR FRET; settings: compound 5.0 µM
[4] = tested on: MET (human), P08581 [M1250T]; assay: SelectScreen, TR FRET; settings: compound 5.0 µM
RPS6KB1 (human) = RPS6KB1 (human) (UniProt P23443); assay: SelectScreen, TR FRET; settings: compound 5.0 µM
KDR (human) [5] = molecular target: KDR (human) (UniProt P35968); assay: radiometric filter-binding kinase assay
MET (human) = MET (human) (UniProt P08581); assay: radiometric filter-binding kinase assay
AXL (human) = AXL (human) (UniProt P30530); assay: radiometric filter-binding kinase assay
TEK (human) [6] = molecular target: TEK (human) (UniProt Q02763); assay: radiometric filter-binding kinase assay
CSF1R (human) = CSF1R (human) (UniProt P07333); assay: radiometric filter-binding kinase assay
PDPK1 (human) = PDPK1 (human) (UniProt O15530); assay: radiometric filter-binding kinase assay
PRKDC (human) = PRKDC (human) (UniProt P78527); assay: radiometric filter-binding kinase assay

Sequence of KDR (human) (P35968 whole entry, looked up): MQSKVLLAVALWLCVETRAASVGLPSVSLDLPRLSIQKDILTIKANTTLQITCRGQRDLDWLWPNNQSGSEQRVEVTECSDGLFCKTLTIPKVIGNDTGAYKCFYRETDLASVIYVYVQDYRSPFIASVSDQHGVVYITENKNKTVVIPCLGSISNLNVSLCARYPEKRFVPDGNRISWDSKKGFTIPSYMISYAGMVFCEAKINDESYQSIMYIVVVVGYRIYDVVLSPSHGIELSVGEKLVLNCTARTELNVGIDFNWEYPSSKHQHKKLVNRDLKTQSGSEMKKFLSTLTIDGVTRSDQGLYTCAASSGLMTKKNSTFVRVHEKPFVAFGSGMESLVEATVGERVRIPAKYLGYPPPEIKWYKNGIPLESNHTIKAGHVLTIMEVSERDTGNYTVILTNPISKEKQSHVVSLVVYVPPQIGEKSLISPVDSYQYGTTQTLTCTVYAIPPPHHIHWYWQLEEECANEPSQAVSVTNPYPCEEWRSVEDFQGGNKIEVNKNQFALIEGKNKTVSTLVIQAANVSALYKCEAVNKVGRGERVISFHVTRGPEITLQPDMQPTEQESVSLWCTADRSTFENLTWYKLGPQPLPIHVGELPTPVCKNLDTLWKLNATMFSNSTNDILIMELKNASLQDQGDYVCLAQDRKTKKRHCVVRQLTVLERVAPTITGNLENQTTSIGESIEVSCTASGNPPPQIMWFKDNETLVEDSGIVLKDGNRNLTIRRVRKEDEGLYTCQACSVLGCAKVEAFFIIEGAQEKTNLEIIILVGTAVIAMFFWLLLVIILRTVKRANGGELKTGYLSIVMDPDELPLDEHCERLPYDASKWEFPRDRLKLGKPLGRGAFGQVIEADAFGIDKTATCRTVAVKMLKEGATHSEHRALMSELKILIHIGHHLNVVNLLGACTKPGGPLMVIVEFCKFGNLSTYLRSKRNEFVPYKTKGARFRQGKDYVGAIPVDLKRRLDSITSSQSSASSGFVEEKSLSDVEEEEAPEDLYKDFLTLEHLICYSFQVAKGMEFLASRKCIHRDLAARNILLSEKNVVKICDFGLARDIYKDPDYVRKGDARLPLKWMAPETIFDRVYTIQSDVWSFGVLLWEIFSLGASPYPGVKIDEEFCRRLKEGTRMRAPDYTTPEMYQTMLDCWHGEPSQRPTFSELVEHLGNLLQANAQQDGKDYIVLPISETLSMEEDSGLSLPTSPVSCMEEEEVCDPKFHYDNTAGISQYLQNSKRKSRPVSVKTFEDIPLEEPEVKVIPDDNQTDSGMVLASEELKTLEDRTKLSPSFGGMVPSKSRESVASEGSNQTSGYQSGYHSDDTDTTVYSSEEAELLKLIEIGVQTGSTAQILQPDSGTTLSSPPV
Sequence of TEK (human) (Q02763 whole entry, looked up): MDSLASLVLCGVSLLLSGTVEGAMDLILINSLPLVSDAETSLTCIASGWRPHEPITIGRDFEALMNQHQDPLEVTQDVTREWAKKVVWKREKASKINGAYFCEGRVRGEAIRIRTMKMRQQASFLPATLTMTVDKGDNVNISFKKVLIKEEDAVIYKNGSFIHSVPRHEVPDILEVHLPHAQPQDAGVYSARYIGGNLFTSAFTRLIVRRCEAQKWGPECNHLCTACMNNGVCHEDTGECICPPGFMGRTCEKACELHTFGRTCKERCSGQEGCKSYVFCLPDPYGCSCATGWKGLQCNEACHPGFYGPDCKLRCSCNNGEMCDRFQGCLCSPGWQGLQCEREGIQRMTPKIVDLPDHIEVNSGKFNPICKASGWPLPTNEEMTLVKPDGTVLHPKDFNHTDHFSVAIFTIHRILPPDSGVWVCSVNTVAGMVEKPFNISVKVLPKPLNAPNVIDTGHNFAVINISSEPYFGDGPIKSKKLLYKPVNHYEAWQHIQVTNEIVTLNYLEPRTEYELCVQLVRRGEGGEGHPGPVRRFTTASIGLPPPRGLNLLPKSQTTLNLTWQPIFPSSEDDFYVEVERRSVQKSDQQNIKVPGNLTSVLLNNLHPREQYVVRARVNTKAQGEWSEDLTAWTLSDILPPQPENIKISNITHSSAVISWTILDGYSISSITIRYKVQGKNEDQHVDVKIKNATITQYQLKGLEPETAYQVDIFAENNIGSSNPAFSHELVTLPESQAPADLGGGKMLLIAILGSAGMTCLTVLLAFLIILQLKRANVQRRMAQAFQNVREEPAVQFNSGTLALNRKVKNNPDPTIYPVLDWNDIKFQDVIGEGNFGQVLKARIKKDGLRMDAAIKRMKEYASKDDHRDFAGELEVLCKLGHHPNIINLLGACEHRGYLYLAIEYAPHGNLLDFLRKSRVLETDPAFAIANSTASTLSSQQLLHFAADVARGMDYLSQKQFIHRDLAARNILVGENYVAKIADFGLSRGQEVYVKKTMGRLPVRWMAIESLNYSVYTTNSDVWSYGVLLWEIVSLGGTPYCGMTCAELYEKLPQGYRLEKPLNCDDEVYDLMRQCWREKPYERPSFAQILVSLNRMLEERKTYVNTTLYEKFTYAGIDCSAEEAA
Sequence of SRPK2 (human) (P78362 whole entry, looked up): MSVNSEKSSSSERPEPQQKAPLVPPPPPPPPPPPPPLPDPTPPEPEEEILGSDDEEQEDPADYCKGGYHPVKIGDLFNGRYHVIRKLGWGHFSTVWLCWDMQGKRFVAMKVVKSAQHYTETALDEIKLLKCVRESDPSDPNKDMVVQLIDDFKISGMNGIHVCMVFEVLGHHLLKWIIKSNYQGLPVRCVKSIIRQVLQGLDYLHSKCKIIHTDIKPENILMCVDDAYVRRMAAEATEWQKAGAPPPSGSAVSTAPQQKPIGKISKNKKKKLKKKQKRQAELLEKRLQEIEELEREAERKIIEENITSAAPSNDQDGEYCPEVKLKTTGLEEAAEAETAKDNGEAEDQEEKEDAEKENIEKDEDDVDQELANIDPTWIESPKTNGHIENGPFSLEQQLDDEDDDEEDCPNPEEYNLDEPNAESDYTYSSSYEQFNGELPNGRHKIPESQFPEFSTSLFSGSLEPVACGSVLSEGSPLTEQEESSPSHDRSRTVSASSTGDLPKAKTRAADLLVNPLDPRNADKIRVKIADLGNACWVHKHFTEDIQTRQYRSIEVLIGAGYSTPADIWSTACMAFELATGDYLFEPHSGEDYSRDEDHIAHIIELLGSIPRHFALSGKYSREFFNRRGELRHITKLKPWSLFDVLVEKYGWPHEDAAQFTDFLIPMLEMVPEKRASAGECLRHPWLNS
Sequence of RPS6KB1 (human) (P23443 whole entry, looked up): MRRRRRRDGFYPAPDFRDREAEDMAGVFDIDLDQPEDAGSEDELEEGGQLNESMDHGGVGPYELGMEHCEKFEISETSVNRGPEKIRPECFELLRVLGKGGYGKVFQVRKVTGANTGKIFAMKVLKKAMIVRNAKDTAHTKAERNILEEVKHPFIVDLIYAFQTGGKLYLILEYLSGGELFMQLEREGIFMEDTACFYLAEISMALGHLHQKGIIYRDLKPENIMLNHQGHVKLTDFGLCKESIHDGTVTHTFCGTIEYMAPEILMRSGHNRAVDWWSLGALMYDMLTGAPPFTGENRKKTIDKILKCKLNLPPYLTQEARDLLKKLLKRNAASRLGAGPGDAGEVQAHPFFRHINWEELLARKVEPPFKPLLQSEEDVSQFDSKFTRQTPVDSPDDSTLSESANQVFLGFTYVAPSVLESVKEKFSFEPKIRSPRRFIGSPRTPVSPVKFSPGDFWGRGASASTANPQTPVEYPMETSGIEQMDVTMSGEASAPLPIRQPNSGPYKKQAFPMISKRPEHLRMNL
Sequence of MAPKAPK3 (human) (Q16644 whole entry, looked up): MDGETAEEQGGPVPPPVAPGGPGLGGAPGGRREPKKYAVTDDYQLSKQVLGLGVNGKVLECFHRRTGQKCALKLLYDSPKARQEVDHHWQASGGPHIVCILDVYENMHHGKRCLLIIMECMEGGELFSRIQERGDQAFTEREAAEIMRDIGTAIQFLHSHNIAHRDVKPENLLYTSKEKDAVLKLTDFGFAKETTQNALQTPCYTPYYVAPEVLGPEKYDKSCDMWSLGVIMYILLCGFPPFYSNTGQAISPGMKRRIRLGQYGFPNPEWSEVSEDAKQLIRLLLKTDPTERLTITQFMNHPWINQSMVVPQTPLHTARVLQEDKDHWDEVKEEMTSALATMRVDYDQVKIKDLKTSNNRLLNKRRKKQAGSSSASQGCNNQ
Sequence of STK4 (human) (Q13043 whole entry, looked up): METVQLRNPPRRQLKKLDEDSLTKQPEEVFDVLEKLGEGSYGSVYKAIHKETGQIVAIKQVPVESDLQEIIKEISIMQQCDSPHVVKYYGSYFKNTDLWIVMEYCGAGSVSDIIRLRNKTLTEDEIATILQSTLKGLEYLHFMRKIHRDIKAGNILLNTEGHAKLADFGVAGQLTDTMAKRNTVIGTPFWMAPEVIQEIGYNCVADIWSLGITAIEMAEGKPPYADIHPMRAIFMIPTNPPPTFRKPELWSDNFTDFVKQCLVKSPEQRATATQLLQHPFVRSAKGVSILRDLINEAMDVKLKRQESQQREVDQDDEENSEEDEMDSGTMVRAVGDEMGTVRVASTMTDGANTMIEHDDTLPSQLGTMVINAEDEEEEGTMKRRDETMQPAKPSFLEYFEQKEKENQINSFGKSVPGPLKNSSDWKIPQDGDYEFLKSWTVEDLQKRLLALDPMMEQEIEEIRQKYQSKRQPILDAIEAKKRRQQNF
Sequence of MAPK14 (human) (Q16539 whole entry, looked up): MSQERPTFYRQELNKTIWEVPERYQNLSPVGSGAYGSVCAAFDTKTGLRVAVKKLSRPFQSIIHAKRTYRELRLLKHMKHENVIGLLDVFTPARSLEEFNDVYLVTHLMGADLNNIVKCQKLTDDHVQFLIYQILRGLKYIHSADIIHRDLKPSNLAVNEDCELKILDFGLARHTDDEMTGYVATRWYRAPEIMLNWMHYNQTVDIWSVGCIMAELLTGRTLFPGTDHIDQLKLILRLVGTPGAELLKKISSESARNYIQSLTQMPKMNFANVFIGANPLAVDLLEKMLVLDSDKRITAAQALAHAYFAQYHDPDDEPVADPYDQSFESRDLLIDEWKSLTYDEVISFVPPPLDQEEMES

**Q.** With `Nc1cc(C(F)(F)F)c(-c2cc(N3CCOCC3)nc(N3CCOCC3)n2)cn1` as the compound, how does the inhibition (KDR (human) [1]) read?
**A.** 3%

**Q.** What about the inhibition (MAPKAPK5 (human)) of the same compound?
**A.** -1%

**Q.** And the inhibition (GSK3B (human))?
**A.** 7%

**Q.** What about the inhibition (GRK7 (human)) of the same compound?
**A.** 0%

**Q.** And the inhibition (MAPK12 (human))?
**A.** 3%

**Q.** What about the inhibition (MAPK14 (human)) of the same compound?
**A.** 4%

**Q.** What about the inhibition (ROCK1 (human)) of the same compound?
**A.** -2%

**Q.** And the inhibition [2]?
**A.** 12%

**Q.** And the inhibition (FLT4 (human))?
**A.** 2%

**Q.** What about the inhibition (GRK5 (human)) of the same compound?
**A.** 1%

**Q.** What about the inhibition (TSSK1B (human)) of the same compound?
**A.** -4%

**Q.** What about the inhibition (MYLK2 (human)) of the same compound?
**A.** 8%

**Q.** And the inhibition (FES (human))?
**A.** 0%

**Q.** And the inhibition (SRPK2 (human))?
**A.** 7%

**Q.** What about the inhibition (PRKCZ (human)) of the same compound?
**A.** 2%

**Q.** What about the inhibition (MAPKAPK3 (human)) of the same compound?
**A.** 1%

**Q.** And the inhibition (FGFR3 (human))?
**A.** 2%

**Q.** And the inhibition (PRKCG (human))?
**A.** 5%

**Q.** And the inhibition (PTK6 (human))?
**A.** -10%

**Q.** What about the inhibition (GRK4 (human)) of the same compound?
**A.** 2%

**Q.** And the inhibition (PRKD3 (human))?
**A.** 8%

**Q.** What about the inhibition (STK4 (human)) of the same compound?
**A.** 14%

**Q.** And the inhibition (TEK (human) [3])?
**A.** 5%

**Q.** What about the inhibition (CLK2 (human)) of the same compound?
**A.** 15%

**Q.** And the inhibition (ROS1 (human))?
**A.** 27%

**Q.** And the inhibition (DYRK4 (human))?
**A.** 3%

**Q.** What about the inhibition (MAP2K2 (human)) of the same compound?
**A.** 3%

**Q.** And the inhibition (PRKCD (human))?
**A.** 4%

**Q.** And the inhibition (GSK3A (human))?
**A.** 5%

**Q.** And the inhibition (MUSK (human))?
**A.** 5%

**Q.** What about the inhibition (EPHA2 (human)) of the same compound?
**A.** 8%

**Q.** And the inhibition (PIM2 (human))?
**A.** 3%

**Q.** What about the inhibition [4] of the same compound?
**A.** 1%

**Q.** And the inhibition (RPS6KB1 (human))?
**A.** 8%

**Q.** And the IC50 (KDR (human) [5])?
**A.** > 10 µM

**Q.** And the IC50 (MET (human))?
**A.** > 10 µM

**Q.** What about the IC50 (AXL (human)) of the same compound?
**A.** > 10 µM

**Q.** And the IC50 (TEK (human) [6])?
**A.** > 10 µM

**Q.** What about the IC50 (CSF1R (human)) of the same compound?
**A.** 0.582 µM

**Q.** And the IC50 (PDPK1 (human))?
**A.** > 10 µM

**Q.** What about the IC50 (PRKDC (human)) of the same compound?
**A.** > 10 µM
